pEC50: −log10 of the molar value. Where two headings read alike, the source gives them in different places.
What was measured:
Ward carcinoma tumors = assay: Antitumor activity in rats bearing Ward carcinoma tumors; type: in vivo; conditions: for Ward carcinoma tumor response: once per week for three weeks
Protocol: Rats were implanted with Ward carcinoma tumors and were treated with one of the following regimens after their tumors grew to 3,000 mg in weight as previously described (Cao et al., Cancer Res 90:1507-1510, 1993). Rats bearing 3,000 mg of tumor mass were dosed at Day 0, Day 7, and Day 14 with the following treatments.
Group A rats received no treatment. Group B rats were intraperitoneally (ip) dosed with 1 mg/kg eniluracil (time (t)=0) followed by intravenous (iv) 5 mg/kg 5-FU at t=60. Group C rats were dosed ip with 1 mg/kg eniluracil (t=0) followed by 25 mg/kg eniluracil ip at t=55 minutes and by 5 mg/kg 5-FU iv at t=60 minutes. Animals were dosed once per week for three weeks. Eniluracil was also dosed ip at 1 mg/kg to rats in Groups B & C on Days 2 and 3 of each weekly treatment. The treatment for Group C mimicked the clinical trials where high levels of eniluracil were present when 5-FU was dosed.

[1] = cited from earlier work
HEK 293 cells [2] = assay: Cytotoxicity of 5-FU, MTS proliferation assay; type: cell-based; conditions: Homo sapiens
Protocol: (§1) HEK 293 cells were initially treated with eniluracil (10 μM) for 1 hour. After a washout period ranging from 4-48 hours, cells were treated with [6-^14C]-5-FU (66 μM) for 2 hours at 37 degrees C. Controls were HEK 293 cells treated for 2 hours either with [6-^14C]-5-FU (66 μM) alone, or with eniluracil (10 μM) and [6-^14C]-5-FU (66 μM) co-administered together without preincubation. Reverse phase HPLC with radioactivity detection was utilized to quantify [6-^14C]-5-FU catabolites/anabolites present in cell lysates. In a separate set of experiments cytotoxicity of 5-FU at different eniluracil dose schedules was examined. HEK 293 cells were treated with a range of 5-FU concentrations for 72 hours at 37 degrees C. following 1 hour eniluracil (5 μM) preincubation, without eniluracil, or with eniluracil (5 μM) co-administered without preincubation. Cytotoxicity was assessed by the MTS proliferation assay and the EC50 values for 5-FU calculated.

HEK 293 cells [3] = assay: [6-14C]-FUMP anabolite formation from [6-14C]-5-FU in HEK 293 cells, reverse phase HPLC; type: cell-based; conditions: eniluracil 10 μM 1 hour, 48 hour washout, then [6-14C]-5-FU 66 μM 2 hours
Protocol: as §1

[4] = cited from earlier work; remark: listed apart in the source
[5] = Plasma uridine levels after eniluracil, LC-MS; type: in vivo; conditions: mice, eniluracil 2, 25 and 100 mg/kg, FIG. 2
Protocol: While eniluracil inhibition is known to cause an increase in uracil levels due to DPD inhibition, inhibitory effects on other enzymes that anabolize fluoropyrimidines would be expected to quantitatively alter the levels of other anabolites, such as uridine. Eniluracil was administered to mice at 2 mg/kg, 25 mg/kg and 100 mg/kg. Plasma samples were taken at 0 minutes, 15 minutes, 30 minutes, 60 minutes, 2 hours, 24 hours and 48 hours. Uridine levels were determined by LC-MS technology using known techniques and standards were used to validate the assay.

DPD = target: T1, DPD (Homo sapiens, UniProt Q12882); conditions: cancer patients, cited from earlier work
T1 construct: 24 hours after one dose of eniluracil, the level of DPD was only 3% of the predose level; host or cells: cancer patients
T1 sequence (Q12882 4-1025): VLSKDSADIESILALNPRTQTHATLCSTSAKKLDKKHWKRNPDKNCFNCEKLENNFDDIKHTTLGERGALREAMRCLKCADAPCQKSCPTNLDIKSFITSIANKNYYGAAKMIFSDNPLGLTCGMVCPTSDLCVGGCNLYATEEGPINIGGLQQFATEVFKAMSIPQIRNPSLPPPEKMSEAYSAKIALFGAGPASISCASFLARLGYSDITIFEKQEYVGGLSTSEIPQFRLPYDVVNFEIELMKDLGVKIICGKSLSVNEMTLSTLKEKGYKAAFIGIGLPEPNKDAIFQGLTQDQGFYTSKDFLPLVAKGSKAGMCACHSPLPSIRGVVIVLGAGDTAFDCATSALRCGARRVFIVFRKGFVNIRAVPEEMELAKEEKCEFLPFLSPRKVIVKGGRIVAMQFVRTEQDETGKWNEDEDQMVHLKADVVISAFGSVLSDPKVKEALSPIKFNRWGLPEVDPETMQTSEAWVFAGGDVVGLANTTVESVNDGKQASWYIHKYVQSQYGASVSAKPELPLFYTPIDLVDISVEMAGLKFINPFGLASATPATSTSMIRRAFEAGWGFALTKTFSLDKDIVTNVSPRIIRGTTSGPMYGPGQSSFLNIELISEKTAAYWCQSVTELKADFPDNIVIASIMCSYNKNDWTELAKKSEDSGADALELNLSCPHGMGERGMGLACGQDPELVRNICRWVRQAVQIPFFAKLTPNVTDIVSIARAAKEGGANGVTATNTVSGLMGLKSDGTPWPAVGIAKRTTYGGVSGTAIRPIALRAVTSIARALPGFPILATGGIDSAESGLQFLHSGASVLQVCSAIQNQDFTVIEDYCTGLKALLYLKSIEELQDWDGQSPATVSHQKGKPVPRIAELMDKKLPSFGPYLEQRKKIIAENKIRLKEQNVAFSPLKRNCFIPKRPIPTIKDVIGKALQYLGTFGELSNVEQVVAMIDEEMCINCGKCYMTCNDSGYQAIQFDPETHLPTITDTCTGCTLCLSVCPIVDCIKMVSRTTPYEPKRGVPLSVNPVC

[6] = tested on: EpiDerm™ skin model (normal, human-derived epidermal keratinocytes); assay: EpiDerm skin model dermal irritation, MTT conversion assay (ET50); type: cell-based
From the text: The EpiDerm™ skin model system (MatTek) was used to assess the potential dermal irritation of eniluracil alone or its formulation. This system consists of normal, human-derived epidermal keratinocytes (NHEK) which have been cultured to form a multilayered, highly differentiated model of the human epidermis. […] The EpiDerm™ system is mitotically and metabolically active. Markers of mature epidermis-specific differentiation such as pro-filaggrin, the K1/K10 cytokeratin pair, involucrin, and type I epidermal transglutaminase have been localized in the model. […] The duration of exposure resulting in a 50% decrease in MTT conversion in test article-treated EpiDerm™ cultures, relative to control cultures, was determined (ET50). Eniluracil was prepared and administered to the test system at the three final concentrations of 1000 μM, 500 μM, and 100 μM, and tested at three exposure times of 8, 20, and 24 hours. The DMSO solvent control was tested at exposure times of 8 and 24 hours. The negative control was tested at exposure times of 4 and 24 hours, and the positive control was tested at exposure times of 4 and 8 hours. The results of the trial, presented in Table 1, confirmed that the three doses of eniluracil were well-tolerated by the EpiDerm™ skin model at topical exposures of up to 24 hours. […] Hydrochloric acid in an amount equivalent to the sodium hydroxide was added to neutralize the ointment. The exposure time control was also exposed in duplicate for 4 and 24 hours. Table 2 below summarizes the ET50 results of the EpiDerm™ assay for the test articles and the positive control, using the negative control results to determine the relative viability.

Which “Ward carcinoma tumor response” value (Ward carcinoma tumors; Group B: eniluracil 1 mg/kg ip t=0, 5-FU 5 mg/kg iv t=60 min) does the source give for `O=c1[nH]cc(F)c(=O)[nH]1` [5-FU, 5-Fluorouracil] here?
Its value is “rapidly eliminated”.

What about the “Ward carcinoma tumor response” value (Ward carcinoma tumors; Group C: eniluracil 1 mg/kg ip t=0, eniluracil 25 mg/kg ip t=55 min, 5-FU 5 mg/kg iv t=60 min) of the same compound?
The value was “decreased only slightly in size”.

What about the “Half-life of 5-FU” value ([1]; cancer patients, after 3.7 mg/m^2 eniluracil) of the same compound?
The value was 4.5 h.

What about the “Elimination half-life of 5-FU” value ([1]; cancer patients, after one dose of eniluracil) of the same compound?
Its value is 3.5 h.

And the “Elimination half-life of 5-FU” value ([1]; cancer patients, without eniluracil)?
The value was “about 10 minutes”.

And the pEC50 (HEK 293 cells [2]; HEK293, 72 h, read-out: EC50 of 5-FU (mean ±SE), 72 hours, 5-FU treatment alone)?
Its pEC50 is 6.51.

And the pEC50 (HEK 293 cells [2]; HEK293, read-out: EC50 of 5-FU (mean ±SE), 72 hours, after 1 hour eniluracil (5 μM) pre-treatment)?
Its pEC50 is 6.58.

And the pEC50 (HEK 293 cells [2]; HEK293, read-out: EC50 of 5-FU (mean ±SE), 72 hours, eniluracil (5 μM) co-administered without preincubation)?
Its pEC50 is 6.51.

With `C#Cc1c[nH]c(=O)[nH]c1=O` [eniluracil, 5-Ethynyluracil] as the compound, how does the “Effect of excess eniluracil on antitumor activity of 5-FU” value (Ward carcinoma tumors; Group C (extra 25 mg/kg eniluracil at 55 min) versus Group B) read?
The value was “greatly diminished”.

And the “Increase in [6-14C]-FUMP formation versus [6-14C]-5-FU treatment alone” value (HEK 293 cells [3])?
The value was 70%.

What about the “Increase in [6-14C]-FUMP formation versus eniluracil and [6-14C]-5-FU co-administration” value (HEK 293 cells [3]) of the same compound?
Its value is 41%.

And the “5-FU-associated hand-foot syndrome toxicity” value ([4]; Phase II and Phase III trials, oral eniluracil with 5-FU)?
The value was “abrogated”.

And the “Toxicity in Phase I clinical trials” value ([4]; cancer patients, eniluracil eliminating DPD activity)?
The value was “without causing toxicity”.

What about the “Antitumor activity versus standard 5-FU regimen without eniluracil” value ([4]; two Phase III studies, 28-day eniluracil and 5-FU regimen, colorectal cancer) of the same compound?
The value was “less antitumor activity”.

And the Plasma uridine levels [5]?
Its Plasma uridine levels is “increase in uridine levels”.

What about the “Level of DPD, % of the predose level” value (DPD; 24 hours after one dose of eniluracil) of the same compound?
Its value is 3%.

What about the DPD eliminated (DPD; dose of 0.74 mg/m^2 (about 1 mg total), for prolonged periods) of the same compound?
Its DPD eliminated is “greater than 90%”.

And the “Tolerability in the EpiDerm skin model” value ([6]; 1000, 500 and 100 μM, topical exposures of up to 24 hours)?
The value was “well-tolerated”.

And the ET50 ([6]; eniluracil 100 uM)?
The ET50 was >24 h.

What about the ET50 ([6]; eniluracil 500 uM) of the same compound?
Its ET50 is >24 h.

And the ET50 ([6]; eniluracil 1000 uM)?
Its ET50 is >24 h.

And the “Elimination half-life for eniluracil” value ([1]; humans)?
Its value is “about 3.5 hours”.

— patent US20080255168A1, “METHODS FOR ADMINISTERING DPD INHIBITORS IN COMBINATION WITH 5-FU AND 5-FU PRODRUGS” (ADHEREX TECHNOLOGIES, INC., priority 2004, published 2008)
